Assay results as given in US11371055B2, “Herbicide resistance genes” (CORTEVA AGRISCIENCE LLC, priority 2005, dated 2022).

Legend:
[1] = tested on: R-dichlorprop habituated PHL (Petite Havana) tobacco cells; assay: 2,4-D dose response of tobacco cell suspension (PHL); assay type: cell-based
Experimental: A dose response study was conducted with both the R-dichlorprop habituated PHL cells and the R-dichlorprop habituated BY2 cells where R-dichlorprop was substituted directly for 2,4-D in culture media. Though the focus was on PHL, a dose response was also done with BY2 in case of possible future studies, as well as to help predict the dose response for PHL. For the dichlorprop habituated PHL dose response, the levels of 2,4-D used (on LSBY2C medium with R-dichlorprop) were 0 (the control), 1, 2, 3, 5, 8, 10, 12, 15, 18, 20, 40, 60, 80, […] mg/L 2,4-D. There were four replications per concentration. For the R-dichlorprop habituated BY2 dose response, the levels of 2,4-D used (on LSBY2C medium) were 0 (the control), 1, 2, 3, 5, 8, 10, 20, 30, 40, mg/L 2,4-D.

[2] = tested on: T1 AAD-12 (v1) tobacco; assay: Elevated 2,4-D DMA rates in greenhouse tobacco, AAD-12; assay type: in vivo, Nicotiana tabacum
Excerpt: T1 AAD-12 (v1) plants from an event segregating 3R:1S when selected with 560 g ai/ha Liberty using the same protocol as previously described. T1 AAD-1 (v3) seed was also planted for transformed tobacco controls (see PCT/US2005/014737). Untransformed KY160 was served as the sensitive control. Plants were sprayed using a track sprayer set to 187 L/ha at 140, 560, 2240, 8960, and 35840 g ae/ha 2,4-D DMA and rated 3 and 14 DAT.

[3] = tested on: untransformed control canola plants; assay: 2,4-D DMA tolerance, untransformed canola control; assay type: in vivo, Brassica napus
Excerpt: (§1) Surviving plants were transplanted into 3-inch pots containing Metro Mix media. Surviving plants from T1 progenies, that were selected with 560 g ae/ha 2,4-D, were also transplanted into 3-inch pots filled with Metro Mix soil. At 2-4 leaf stage plants were sprayed with either 280, 560, 1120, or 2240 g ae/ha 2,4-D DMA. Plants were graded at 3 and 14 DAT and compared to untransformed control plants. A sampling of T1 event injury data 14DAT may be seen in Table 30.

[4] = tested on: T1 AAD-12 (v1) rice lines pDAB4101(20)003 and pDAB4101(27)002; assay: 2,4-D DMA tolerance in T1 rice; assay type: in vivo, Oryza sativa
Excerpt: The following T1 AAD-12 (v1) single segregating locus lines were planted into 3-inch pots containing Metro Mix media: pDAB4101(20)003 and pDAB4101(27)002. At 2-3 leaf stage were sprayed with 140 g ae/ha imazethapyr. Nulls were eliminated and individuals were sprayed at V3-V4 stage in the track sprayer set to 187 L/ha at 1120, 2240 or 4480 g ac/ha 2,4-D DMA (2×, 4×, and 8× typical commercial use rates, respectively). Plants were graded at 7 and 14 DAT and compared to untransformed commercial rice cultivar. ‘Lamont,’ as negative control plants.

[5] = tested on: T1 AAD-12 (v1) canola; assay: 2,4-D DMA tolerance in T1 canola; assay type: in vivo, Brassica napus
Experimental: For T1 AAD-12 (v1), 5-6 mg of seed were stratified, sown, and a fine layer of Sunshine Mix #5 media was added as a top layer of soil. Emerging plants were selected with 560 g ae/ha 2,4-D at 7 and 13 days after planting.
as §1

[6] = LSBY2C medium with R-dichlorprop

With `O=C(O)COc1ccc(Cl)cc1Cl` [2,4-D, 2,4-dichlorophenoxyacetic acid] the “growth of PHL suspension” value ([1]; 10-mg/L 2,4-D) was “slight growth”, the “2,4-D concentrations with growth comparable to control treatments” value [1, 6] was 1 to 8 mg/L and the “lethal concentrations of 2,4-D” value [1, 6] was “above 10 mg/L”. For the same molecule, the “Average % injury 14 DAT” value ([2]; 2240 g ae/ha 2,4-D) was 0%, the “Average % injury 14 DAT” value ([2]; 8960 g ae/ha 2,4-D) was 0% and the “Average % injury 14 DAT” value ([2]; 35840 g ae/ha 2,4-D) was 4%.
In the case of `CNC.O=C(O)COc1ccc(Cl)cc1Cl` [2,4-D DMA], the “Average % injury 14 DAT” value ([3]; 280 g ae/ha) is reported as 85%, the “Average % injury 14 DAT” value ([3]; 560 g ae/ha) is reported as 85% and the “Average % injury 14 DAT” value ([3]; 1120 g ae/ha) is reported as 90%. The “Average % injury 14 DAT” value ([3]; 2240 g ae/ha) was 95%, the “Average % injury 14 DAT” value ([4]; T1 pDAB4101(20)003, 1120 g ae/ha) was 10% and the “Average % injury 14 DAT” value ([4]; T1 pDAB4101(20)003, 2240 g ae/ha) was 15%. The “Average % injury 14 DAT” value ([4]; T1 pDAB4101(20)003, 4480 g ae/ha) was 23%, the “Average % injury 14 DAT” value ([4]; T1 pDAB4101(27)002, 1120 g ae/ha) was 10% and the “Average % injury 14 DAT” value ([4]; T1 pDAB4101(27)002, 2240 g ae/ha) was 30%. The “Average % injury 14 DAT” value ([4]; T1 pDAB4101(27)002, 4480 g ae/ha) was 40%, the “Average % injury 14 DAT” value ([5]; T1 pDAB3759(18)009.001, 280 g ae/ha) was 0% and the “Average % injury 14 DAT” value ([5]; T1 pDAB3759(18)009.001, 560 g ae/ha) was 0%. The “Average % injury 14 DAT” value ([5]; T1 pDAB3759(18)009.001, 1120 g ae/ha) was 0%, the “Average % injury 14 DAT” value ([5]; T1 pDAB3759(18)009.001, 2240 g ae/ha) was 5% and the “Average % injury 14 DAT” value ([5]; T1 pDAB3759(18)022.001, 280 g ae/ha) was 0%. The “Average % injury 14 DAT” value ([5]; T1 pDAB3759(18)022.001, 560 g ae/ha) was 0%, the “Average % injury 14 DAT” value ([5]; T1 pDAB3759(18)022.001, 1120 g ae/ha) was 13% and the “Average % injury 14 DAT” value ([5]; T1 pDAB3759(18)022.001, 2240 g ae/ha) was 83%. For the same molecule, the “Average % injury 14 DAT” value ([5]; T1 pDAB3759(18)023.001, 280 g ae/ha) was 0%, the “Average % injury 14 DAT” value ([5]; T1 pDAB3759(18)023.001, 560 g ae/ha) was 0% and the “Average % injury 14 DAT” value ([5]; T1 pDAB3759(18)023.001, 1120 g ae/ha) was 3%. The “Average % injury 14 DAT” value ([5]; T1 pDAB3759(18)023.001, 2240 g ae/ha) was 6%, the “Average % injury 14 DAT” value ([5]; T1 pDAB3759(18)030.001, 280 g ae/ha) was 0% and the “Average % injury 14 DAT” value ([5]; T1 pDAB3759(18)030.001, 560 g ae/ha) was 0%. For the same molecule, the “Average % injury 14 DAT” value ([5]; T1 pDAB3759(18)030.001, 1120 g ae/ha) was 5%, the “Average % injury 14 DAT” value ([5]; T1 pDAB3759(18)030.001, 2240 g ae/ha) was 31% and the “Average % injury 14 DAT” value ([5]; T1 pDAB3759(33)013.001, 280 g ae/ha) was 0%. For the same molecule, the “Average % injury 14 DAT” value ([5]; T1 pDAB3759(33)013.001, 560 g ae/ha) was 0%, the “Average % injury 14 DAT” value ([5]; T1 pDAB3759(33)013.001, 1120 g ae/ha) was 0% and the “Average % injury 14 DAT” value ([5]; T1 pDAB3759(33)013.001, 2240 g ae/ha) was 1%.
